System: 3rd instar Aedes aegypti
Assay: Laboratory bioassay in larval trays, larvicide surface film, Aedes aegypti
Type: in vivo
Conditions: components of Sample 42 tested neat, rate 663 μL, 21° C.
Description: Laboratory Bioassay Method. All larvae were reared on a diet of ground TETRAMIN® fish food (Tetra, Blacksburg, Va.) in an insectary maintained at 30° C. and 45% relative humidity (RH). Mainly third instars of Aedes aegypti were used for the laboratory container experiments. Anopheles quadrimaculatus and Culex quinquefasciatus were also tested where indicated.
Laboratory bioassays were conducted in […] plastic larval trays (laboratory containers). Each tray was filled with 27 liters of de-chlorinated water and received 50 healthy third instar larvae. The temperature of the water during most of the studies was 21° C. Additional testing was done at a water temperature of 15.6° C. and 28° C. Treatments were applied at a rate of 3 gal/acre or 663 μL/tray with an Eppendorf pipette. During the experimental period larvae were fed ground TETRAMIN® fish food (Tetra, Blacksburg, Va.) that was blended with water before introduction into the water of the larval tray to prevent flotation and thus interference with the surface film being tested.
Trays were scored for mortality at 1, 2, 4, 24, 48, and 72 hours following treatment introduction. At each time period the numbers of live and dead larvae were counted. […] Each treatment in the study was replicated three times using separate trays for each replication. A 95% mortality rate was considered acceptable for a commercial product.

Substance: ethoxylated tridecyl alcohol
- % MORTALITY 24 HAT (24 HAT): 17%
- % MORTALITY 48 HAT (48 HAT): 20%
- % MORTALITY 72 HAT (72 HAT): 25%

From patent US20160270410A1, “INSECTICIDAL COMPOSITIONS AND METHODS OF USING THE SAME” (Clarke Mosquito Control Products, Inc., priority 2011, published 2016)
